According to patent US7544667B2, “Hypocholesterolemic compounds” (Lipideon Biotechnology AG, priority 2003, dated 2009):

system: rabbit brush border membrane vesicles (BBMV); experiment: inhibition of cholesterol uptake in rabbit brush border membrane vesicles (BBMV); assay type: biochemical; conditions: applied in donor SUV (9 mol %); scavenger receptor-mediated uptake of radiolabelled cholesterol ester from donor particles into BBMV bilayer
Procedure: The compounds of the invention and ezetimibe (commercially obtained or prepared according to Wu, G. Z. et al., J. Org. Chem. 1999) together with the glucuronide (the metabolite of ezetimibe, prepared according to Vaccaro, W. D.; Davis, H. R. Bioorg. Med. Chem. Lett. 1998, 8, 313-318) as appropriate reference compounds were evaluated by well-established methods to determine their inhibition of cholesterol uptake in rabbit brush border membrane vesicles (BBMV) (Table 1). Briefly, the scavenger receptor-mediated uptake of radiolabelled cholesterol ester from the loaded donor particles into the BBMV bilayer was measured in the presence of various compounds of the invention and appropriate reference compounds (Hauser, H. et al., Biochemistry 1998, 37, 17843-17850; Werder, M. et al., Biochemistry 2001, 40, 11643-11650; Boffelli, D. et al., FEBS Lett. 1997, 411, 7-11.)

Question: For CS(=O)(=O)Oc1ccc([C@@H]2[C@@H](CC[C@H](O)c3ccc(F)cc3)C(=O)N2c2ccc(F)cc2)cc1 [VI], which “Inhibition in (%)” value is on record?
Answer: Its value is 30 ± 4%.

Question: How did the “Inhibition in (%)” value turn out when O=C(O)c1cc(S(=O)(=O)Oc2ccc([C@@H]3[C@@H](CC[C@H](O)c4ccc(F)cc4)C(=O)N3c3ccc(F)cc3)cc2)ccc1O [XVI] was run?
Answer: Its value is 21 ± 5%.

Question: With O=C1O[C@H](CC[C@H](O)c2ccc(F)cc2)[C@@H](c2ccc(O)cc2)N1c1ccc(F)cc1 [XXI] as the compound, how does the “Inhibition in (%)” value read?
Answer: Its value is 19 ± 2%.

Question: With O=S(=O)(Oc1ccc([C@@H]2[C@@H](CC[C@H](O)c3ccc(F)cc3)CN2c2ccc(F)cc2)cc1)c1ccccc1 [XV] as the compound, how does the “Inhibition in (%)” value read?
Answer: Its value is 19 ± 3%.

Question: Which “Inhibition in (%)” value does the source give for CS(=O)(=O)Oc1ccc([C@@H]2[C@@H](CC[C@H](O)c3ccc(F)cc3)CN2c2ccc(F)cc2)cc1 [VII] here?
Answer: The value was 22 ± 2%.

Question: Which “Inhibition in (%)” value does the source give for O=C1[C@H](CC[C@H](O)c2ccc(F)cc2)[C@@H](c2ccc(O)cc2)N1c1ccc(F)cc1 [Ezetimibe, reference compound] here?
Answer: The value was 16 ± 4%.

Question: With COC1OC(CS(=O)(=O)Oc2ccc([C@@H]3[C@@H](CC[C@H](O)c4ccc(F)cc4)C(=O)N3c3ccc(F)cc3)cc2)C(O)C(O)C1O (some centres unmarked) [IXb] as the compound, how does the “Inhibition in (%)” value read?
Answer: Its value is 20 ± 5%.

Question: For O=C1[C@H](CC[C@H](O)c2ccc(F)cc2)[C@@H](c2ccc(OS(=O)(=O)CC3OC(CO)C(OC4OC(CO)C(O)C(O)C4O)C(O)C3O)cc2)N1c1ccc(F)cc1 (some centres unmarked) [XVIII], which “Inhibition in (%)” value is on record?
Answer: The value was 41 ± 4%.

Question: For O=C1[C@H](CC[C@H](O)c2ccc(F)cc2)[C@@H](c2ccc(OS(=O)(=O)c3ccccc3)cc2)N1c1ccc(F)cc1 [XIV], which “Inhibition in (%)” value is on record?
Answer: Its value is 26 ± 3%.

Question: Which “Inhibition in (%)” value does the source give for O=C1[C@H](CC[C@H](O)c2ccc(F)cc2)[C@@H](c2ccc(OCC3OC(CO)C(O)C(O)C3O)cc2)N1c1ccc(F)cc1 (some centres unmarked) [VIII] here?
Answer: The value was 15 ± 3%.

Question: O=C1[C@H](CC[C@H](O)c2ccc(F)cc2)[C@@H](c2ccc(OCC3OC(CO)C(OC4OC(CO)C(O)C(O)C4O)C(O)C3O)cc2)N1c1ccc(F)cc1 (some centres unmarked) [XVII] was tested. Which “Inhibition in (%)” value did it give?
Answer: Its value is 28 ± 4%.

Question: How did the “Inhibition in (%)” value turn out when COC1OC(CS(=O)(=O)Oc2ccc([C@@H]3[C@@H](CC[C@H](O)c4ccc(F)cc4)CN3c3ccc(F)cc3)cc2)C(O)C(O)C1O (some centres unmarked) [IX] was run?
Answer: The value was 27 ± 4%.

Question: How did the “Inhibition in (%)” value turn out when O=C1[C@H](CC[C@H](O)c2ccc(F)cc2)[C@@H](c2ccc(OS(=O)(=O)CC3OC(CO)C(O)C(O)C3O)cc2)N1c1ccc(F)cc1 (some centres unmarked) [X] was run?
Answer: The value was 15 ± 3%.

Question: Which “Inhibition in (%)” value does the source give for O=C(O)[C@H]1O[C@@H](Oc2ccc([C@@H]3[C@@H](CC[C@H](O)c4ccc(F)cc4)C(=O)N3c3ccc(F)cc3)cc2)[C@H](O)[C@@H](O)[C@@H]1O [Glucuronide, reference compound] here?
Answer: The value was 19 ± 4%.
